Assay [1] relates to Bacillus cereus. Description: Antibacterial activity of compound was determined against Bacillus cereus ATCC 27348. The assay is classed as functional.
For assay [2], the system named is Escherichia coli. Description: Antibacterial activity of compound was determined against Escherichia coli JM109. The assay is classed as functional.
Assay [3] concerns Klebsiella pneumoniae. Description: Antibacterial activity of compound was determined against Klebsiella pneumoniae 2011E. The assay is classed as functional.
Assay [4] deals with Klebsiella aerogenes. Description: Antibacterial activity of compound was determined against Klebsiella aerogenes 1976E. The assay is classed as functional.
Assay [5] has as its system Pseudomonas aeruginosa. Briefly: Antibacterial activity of compound was determined against Pseudomonas aeruginosa 1912. The assay is classed as functional.
Assay [6] has as its system Salmonella typhimurium. Briefly: Antibacterial activity of compound was determined against Salmonella Typhimurium 14028. To be noted: Salmonella enterica. The assay is classed as functional, Salmonella enterica subsp. enterica serovar Typhimurium.
The test system of assay [7] is Staphylococcus aureus. Briefly: Antibacterial activity of compound was determined against Staphylococcus aureus 1538p. The assay is classed as functional.
In assay [8] the test system is Staphylococcus epidermidis. Briefly: Antibacterial activity of compound was determined against […] 887E. The assay is classed as functional.

The source of these data is ChEMBL document CHEMBL1131707, “Methionyl adenylate analogues as inhibitors of methionyl-tRNA synthetase” (1999).

In brackets after ≈: the same amount, converted by molar mass.

In the case of `CSCC[C@H](N)C(=O)OC[C@H]1O[C@@H](n2cnc3c(N)ncnc32)[C@H](O)[C@@H]1O`, the minimal inhibitory concentration (MIC) in assay [1] was 32 µg/mL (≈ 80.3 µM); in assay [2], 0.5 µg/mL (≈ 1.25 µM); in assay [3] it was more than 64 µg/mL; in assay [4], more than 64 µg/mL; in assay [5], more than 64 µg/mL; in assay [6] it was more than 64 µg/mL. Further, the MIC in assay [7] and in assay [8] was more than 64 µg/mL each time.

`CSCC[C@H](N)C(=O)NO`: the MIC in assay [1] is more than 64 µg/mL; in assay [2], 0.5 µg/mL (≈ 3.04 µM); in assay [3] it was more than 64 µg/mL; in assay [4] it was 4 µg/mL (≈ 24.4 µM); in assay [5] it was more than 64 µg/mL; in assay [6], 8 µg/mL (≈ 48.7 µM). Also, the MIC in assay [7] and in assay [8] was more than 64 µg/mL each time.

With `CSCC[C@H](N)C(=O)NOC[C@H]1OC(n2cnc3c(N)ncnc32)[C@H](O)[C@@H]1O` (stereo not given in full), the MIC in assay [1] is more than 64 µg/mL; in assay [2], 8 µg/mL (≈ 19.3 µM); in assay [3], more than 64 µg/mL; in assay [4] it was more than 64 µg/mL; in assay [5], more than 64 µg/mL; in assay [6], more than 64 µg/mL. For the same compound, the MIC in assay [7] and in assay [8] was more than 64 µg/mL in each case.

Regarding `CSCC[C@H](N)C(=O)NC[C@H]1OC(n2cnc3c(N)ncnc32)[C@H](O)[C@@H]1O` (stereo not given in full), the MIC in assay [1] is more than 64 µg/mL; in assay [2], 1 µg/mL (≈ 2.52 µM); in assay [3], more than 64 µg/mL; in assay [4], more than 64 µg/mL; in assay [5] it was more than 64 µg/mL; in assay [6], more than 64 µg/mL. Also, the MIC in assay [7] and in assay [8] was more than 64 µg/mL throughout.

As to `CSCC[C@H](N)C(=O)N(O)C[C@H]1OC(n2cnc3c(N)ncnc32)[C@H](O)[C@@H]1O` (stereo not given in full), the MIC was 8 µg/mL (≈ 19.3 µM) in assay [1]; 0.5 µg/mL (≈ 1.21 µM) in assay [2]; more than 64 µg/mL in assay [3]; more than 64 µg/mL in assay [4]; more than 64 µg/mL in assay [5]; more than 64 µg/mL in assay [6]. The MIC in assay [7] and in assay [8] was more than 64 µg/mL each time.
